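The compound was tested at five concentrations on cells cultured in 96-well plates, with a 48-hour exposure period. GI50 is the concentration that inhibits growth by half.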 The source made the active and inactive calls. Rule as the data show it: active = GI50 up to about 1.1 µM and inactive = higher.
What was measured:
Assay in all cases: growth of human tumour cells (NCI), 48 h
[1] = tested on: SNB-75
[2] = tested on: KM12
[3] = tested on: UO-31
[4] = tested on: CCRF-CEM
[5] = tested on: Malme-3M
[6] = tested on: A549
[7] = tested on: SNB-19
[8] = tested on: U-251
[9] = tested on: HOP-92
[10] = tested on: SF-268
[11] = tested on: HT-29
[12] = tested on: SK-MEL-5
[13] = tested on: IGROV-1
[14] = tested on: COLO 205
[15] = tested on: EKVX
[16] = tested on: NCI-H23
[17] = tested on: OVCAR-4
[18] = tested on: SK-MEL-2
[19] = tested on: SW-620
[20] = tested on: OVCAR-3

CCCSc1ccc2[nH]c(N3C(=O)/C(=C/c4cc(OC)c(OC)c(OC)c4)N=C3c3ccccc3)cc2c1
GI50 [1]: 10.8 µM (inactive) | GI50 [2]: 1.65 µM (inactive) | GI50 [3]: 15.1 µM (inactive) | GI50 [4]: 7.94 µM (inactive) | GI50 [5]: 13.9 µM (inactive) | GI50 [6]: 0.553 µM (active) | GI50 [7]: 0.681 µM (active) | GI50 [8]: 17.8 µM (inactive) | GI50 [9]: 13.9 µM (inactive) | GI50 [10]: 11 µM (inactive) | GI50 [11]: 7.82 µM (inactive) | GI50 [12]: 7.53 µM (inactive) | GI50 [13]: 9.38 µM (inactive) | GI50 [14]: 8.43 µM (inactive) | GI50 [15]: 5.74 µM (inactive) | GI50 [16]: 10.9 µM (inactive) | GI50 [17]: 14.5 µM (inactive) | GI50 [18]: 18.4 µM (inactive) | GI50 [19]: 10.9 µM (inactive) | GI50 [20]: 9.12 µM (inactive)

COc1cccc(N/C(C)=C2/CCOC2=O)c1
GI50 [1]: > 10 µM (inactive) | GI50 [2]: > 10 µM (inactive) | GI50 [3]: 8.15 µM (inactive) | GI50 [4]: > 10 µM (inactive) | GI50 [5]: > 10 µM (inactive) | GI50 [6]: > 10 µM (inactive) | GI50 [7]: > 10 µM (inactive) | GI50 [8]: > 10 µM (inactive) | GI50 [10]: > 10 µM (inactive) | GI50 [11]: > 10 µM (inactive) | GI50 [12]: > 10 µM (inactive) | GI50 [13]: > 10 µM (inactive) | GI50 [14]: > 10 µM (inactive) | GI50 [15]: > 10 µM (inactive) | GI50 [16]: > 10 µM (inactive) | GI50 [17]: > 10 µM (inactive) | GI50 [18]: > 10 µM (inactive) | GI50 [19]: > 10 µM (inactive) | GI50 [20]: > 10 µM (inactive)

O=C(CCl)NC(Cc1ccc(F)cc1)C(=O)O (stereo not given)
GI50 [1]: > 100 µM (inactive) | GI50 [2]: > 100 µM (inactive) | GI50 [3]: > 100 µM (inactive) | GI50 [4]: > 100 µM (inactive) | GI50 [5]: 69.3 µM (inactive) | GI50 [6]: > 100 µM (inactive) | GI50 [7]: > 100 µM (inactive) | GI50 [8]: > 100 µM (inactive) | GI50 [9]: > 100 µM (inactive) | GI50 [10]: > 100 µM (inactive) | GI50 [11]: > 100 µM (inactive) | GI50 [12]: > 100 µM (inactive) | GI50 [13]: > 100 µM (inactive) | GI50 [14]: > 100 µM (inactive) | GI50 [15]: > 46 µM (inactive) | GI50 [16]: > 100 µM (inactive) | GI50 [17]: > 100 µM (inactive) | GI50 [18]: > 100 µM (inactive) | GI50 [19]: > 100 µM (inactive) | GI50 [20]: > 100 µM (inactive)

Cc1sc(Cc2ccccc2)nc1-c1ccc(N)cc1
GI50 [2]: 17 µM (inactive) | GI50 [3]: 38.9 µM (inactive) | GI50 [4]: 15.9 µM (inactive) | GI50 [5]: 31.3 µM (inactive) | GI50 [6]: 30.6 µM (inactive) | GI50 [7]: 48.4 µM (inactive) | GI50 [8]: 26.6 µM (inactive) | GI50 [9]: 13.8 µM (inactive) | GI50 [10]: 25 µM (inactive) | GI50 [11]: 22.6 µM (inactive) | GI50 [12]: 18 µM (inactive) | GI50 [13]: 27.9 µM (inactive) | GI50 [14]: 23.1 µM (inactive) | GI50 [15]: 31.4 µM (inactive) | GI50 [16]: 32.9 µM (inactive) | GI50 [17]: 12.7 µM (inactive) | GI50 [18]: 17.3 µM (inactive) | GI50 [19]: 23.7 µM (inactive) | GI50 [20]: 20.7 µM (inactive)

Cc1c(C#N)c2nnn(C)c(=O)n2c1-c1ccccc1
GI50 [1]: 23.6 µM (inactive) | GI50 [2]: 57.1 µM (inactive) | GI50 [3]: 95.5 µM (inactive) | GI50 [4]: 64.1 µM (inactive) | GI50 [6]: 86.3 µM (inactive) | GI50 [7]: > 100 µM (inactive) | GI50 [8]: > 100 µM (inactive) | GI50 [9]: > 100 µM (inactive) | GI50 [10]: > 100 µM (inactive) | GI50 [15]: 56 µM (inactive) | GI50 [16]: 59.3 µM (inactive) | GI50 [17]: > 100 µM (inactive) | GI50 [18]: > 100 µM (inactive) | GI50 [19]: > 100 µM (inactive) | GI50 [20]: > 100 µM (inactive)

O=C(CSc1nc2ccccc2c2ccccc12)c1ccccc1
GI50 [1]: 13.8 µM (inactive) | GI50 [2]: > 100 µM (inactive) | GI50 [3]: > 100 µM (inactive) | GI50 [5]: > 100 µM (inactive) | GI50 [6]: > 100 µM (inactive) | GI50 [7]: > 100 µM (inactive) | GI50 [8]: > 100 µM (inactive) | GI50 [9]: > 100 µM (inactive) | GI50 [10]: > 100 µM (inactive) | GI50 [11]: > 100 µM (inactive) | GI50 [12]: > 100 µM (inactive) | GI50 [13]: > 100 µM (inactive) | GI50 [14]: > 100 µM (inactive) | GI50 [15]: > 100 µM (inactive) | GI50 [16]: > 100 µM (inactive) | GI50 [17]: > 100 µM (inactive) | GI50 [18]: > 100 µM (inactive) | GI50 [19]: > 100 µM (inactive) | GI50 [20]: > 100 µM (inactive)

CC(C)OP(=O)(OC(C)C)/C(=N/Nc1ccc([N+](=O)[O-])cc1)NCCO
GI50 [1]: > 100 µM (inactive) | GI50 [2]: > 100 µM (inactive) | GI50 [3]: > 100 µM (inactive) | GI50 [4]: > 100 µM (inactive) | GI50 [5]: > 100 µM (inactive) | GI50 [6]: 74.8 µM (inactive) | GI50 [7]: > 100 µM (inactive) | GI50 [8]: > 100 µM (inactive) | GI50 [9]: 64.1 µM (inactive) | GI50 [10]: > 100 µM (inactive) | GI50 [12]: > 100 µM (inactive) | GI50 [14]: > 100 µM (inactive) | GI50 [15]: > 100 µM (inactive) | GI50 [16]: > 100 µM (inactive) | GI50 [17]: > 100 µM (inactive) | GI50 [18]: > 100 µM (inactive) | GI50 [19]: > 100 µM (inactive) | GI50 [20]: > 100 µM (inactive)
